Experimental data: US20180000085A1, “USE OF PICOLINAMIDE COMPOUNDS WITH FUNGICIDAL ACTIVITY” (DOW AGROSCIENCES LLC, priority 2014, published 2018)

Tests used:
Zymoseptoria tritici = assay: Leaf blotch of wheat (SEPTTR) disease control on wheat seedlings; type: in vivo; design: key to SEPTTR 1DP, HV activity at 100 ppm (% control rating) / SEPTTR 3DC, HV activity at 100 ppm (% control rating) / SEPTTR disease control, 1DP / SEPTTR disease control, 3DC / SEPTTR 1DP disease control rating, HV activity / SEPTTR 3DC disease control rating, HV activity / SEPTTR 3DC, LV activity at 125.1 g/H (% Control rating) / SEPTTR 1DP, LV activity at 125.1 g/H (% Control rating) / SEPTTR 1DP disease control rating, LV activity at 125.1 g/H / SEPTTR 3DC disease control rating, LV activity at 125.1 g/H / SEPTTR 3DC disease control rating, HV activity at 100 ppm / SEPTTR 1DP disease control rating, HV activity at 100 ppm / HV activity at 100 ppm SEPTTR 3DC (disease control rating) / HV activity at 100 ppm SEPTTR 1DP (disease control rating) / LV activity at 125.1 g/H SEPTTR 1DP (disease control rating) / LV activity at 125.1 g/H SEPTTR 3DC (disease control rating): A: > 80; B: ≤ 80; C: Not Tested; D: No Activity Observed in the Reported Assay; details: low volume application, 125.1 g/H; for SEPTTR 1DP, LV activity at 125.1 g/H (% Control rating): 1 Day Protectant; for SEPTTR 3DC, LV activity at 125.1 g/H (% Control rating): 3 Day Curative
Puccinia triticina = assay: Wheat brown rust (PUCCRT) disease control on wheat seedlings; type: in vivo; details: low volume application, 125.1 g/H; for PUCCRT 1DP, LV activity at 125.1 g/H (% Control rating): 1 Day Protectant; for PUCCRT 3DC, LV activity at 125.1 g/H (% Control rating): 3 Day Curative

Structure (SMILES) | SEPTTR 1DP, LV activity at 125.1 g/H (% Control rating) (Zymoseptoria tritici) | SEPTTR 3DC, LV activity at 125.1 g/H (% Control rating) (Zymoseptoria tritici) | PUCCRT 1DP, LV activity at 125.1 g/H (% Control rating) (Puccinia triticina) | PUCCRT 3DC, LV activity at 125.1 g/H (% Control rating) (Puccinia triticina)
CCC(CC)[C@@H](Oc1cccc(F)c1)[C@H](C)OC(=O)[C@H](C)NC(=O)c1nccc(OC)c1OCOC(C)=O [Cmpd 586] | B (≤ 80) | A (> 80) | A (> 80) | A (> 80)
CCC(CC)[C@@H](Oc1ccc(Cl)cc1Cl)[C@H](C)OC(=O)[C@H](C)NC(=O)c1nccc(OC)c1OCOC(C)=O [Cmpd 590] | B (≤ 80) | B (≤ 80) | A (> 80) | B (≤ 80)
CCC(CC)[C@@H](Oc1cc(F)ccc1F)[C@H](C)OC(=O)[C@H](C)NC(=O)c1nccc(OC)c1OCOC(C)=O [Cmpd 591] | B (≤ 80) | A (> 80) | A (> 80) | A (> 80)
CCC(CC)[C@@H](Oc1ccc(C(F)(F)F)cc1)[C@H](C)OC(=O)[C@H](C)NC(=O)c1nccc(OC)c1OCOC(C)=O [Cmpd 594] | A (> 80) | B (≤ 80) | A (> 80) | A (> 80)
CCC(CC)[C@@H](Oc1cccc(-c2ccccc2)c1)[C@H](C)OC(=O)[C@H](C)NC(=O)c1nccc(OC)c1OCOC(C)=O [Cmpd 595] | A (> 80) | A (> 80) | A (> 80) | B (≤ 80)
CCC(CC)[C@@H](Oc1ccc(-c2ccccc2)cc1)[C@H](C)OC(=O)[C@H](C)NC(=O)c1nccc(OC)c1OCOC(C)=O [Cmpd 596] | A (> 80) | B (≤ 80) | A (> 80) | B (≤ 80)
CCC(CC)[C@@H](Oc1ccc(Cl)cc1Cl)[C@H](C)OC(=O)[C@H](C)NC(=O)c1nccc(OC)c1OC(C)=O [Cmpd 601] | B (≤ 80) | B (≤ 80) | A (> 80) | B (≤ 80)
CCC(CC)[C@@H](Oc1cc(F)ccc1F)[C@H](C)OC(=O)[C@H](C)NC(=O)c1nccc(OC)c1OC(C)=O [Cmpd 602] | A (> 80) | A (> 80) | A (> 80) | A (> 80)
CCC(CC)[C@@H](Oc1cc(F)cc(Cl)c1)[C@H](C)OC(=O)[C@H](C)NC(=O)c1nccc(OC)c1OC(C)=O [Cmpd 603] | A (> 80) | A (> 80) | A (> 80) | A (> 80)
CCC(CC)[C@@H](Oc1ccc(C(F)(F)F)cc1)[C@H](C)OC(=O)[C@H](C)NC(=O)c1nccc(OC)c1OC(C)=O [Cmpd 605] | A (> 80) | B (≤ 80) | A (> 80) | B (≤ 80)
CCC(CC)[C@@H](Oc1cccc(-c2ccccc2)c1)[C@H](C)OC(=O)[C@H](C)NC(=O)c1nccc(OC)c1OC(C)=O [Cmpd 606] | A (> 80) | B (≤ 80) | A (> 80) | B (≤ 80)
CCC(CC)[C@@H](Oc1ccc(-c2ccccc2)cc1)[C@H](C)OC(=O)[C@H](C)NC(=O)c1nccc(OC)c1OC(C)=O [Cmpd 607] | A (> 80) | B (≤ 80) | A (> 80) | B (≤ 80)
COc1ccnc(C(=O)N[C@@H](C)C(=O)O[C@@H](C)[C@H](Oc2ccc(-c3ccccc3)cc2)C(C)C)c1OCOC(C)=O [Cmpd 612] | D | B (≤ 80) | A (> 80) | B (≤ 80)
COc1ccnc(C(=O)N[C@@H](C)C(=O)O[C@@H](C)[C@H](Oc2cccc(-c3ccccc3)c2)C(C)C)c1OCOC(C)=O [Cmpd 613] | B (≤ 80) | B (≤ 80) | A (> 80) | A (> 80)
COc1ccnc(C(=O)N[C@@H](C)C(=O)O[C@@H](C)[C@H](Oc2ccc(C(F)(F)F)cc2)C(C)C)c1OCOC(C)=O [Cmpd 618] | B (≤ 80) | A (> 80) | A (> 80) | A (> 80)
CC[C@H](C)[C@H](NC(=O)c1nccc(OC)c1OCOC(C)=O)C(=O)O[C@@H](C)[C@H](Oc1cc(F)ccc1F)C(C)C [Cmpd 619] | D | D | A (> 80) | A (> 80)
CC[C@H](C)[C@H](NC(=O)c1nccc(OC)c1OCOC(C)=O)C(=O)O[C@@H](C)[C@H](Oc1ccc(C(F)(F)F)cc1)C(C)C [Cmpd 620] | D | B (≤ 80) | B (≤ 80) | B (≤ 80)
COc1ccnc(C(=O)N[C@@H](C)C(=O)O[C@@H](C)[C@H](Oc2ccc3ccccc3c2)C(C)C)c1OCOC(C)=O [Cmpd 622] | D | B (≤ 80) | A (> 80) | A (> 80)
COc1ccnc(C(=O)N[C@@H](C)C(=O)O[C@@H](C)[C@H](OC(=O)C(C)C)C(C)C)c1OCOC(C)=O [Cmpd 623] | D | B (≤ 80) | A (> 80) | A (> 80)
COc1ccnc(C(=O)N[C@H](C(=O)O[C@@H](C)[C@H](Oc2cccc3ccccc23)C(C)C)C(C)C)c1OCOC(C)=O [Cmpd 624] | B (≤ 80) | D | A (> 80) | A (> 80)
COc1ccnc(C(=O)N[C@@H](C)C(=O)O[C@@H](C)[C@H](Oc2ccc(-c3ccccc3)cc2)C(C)C)c1OC(C)=O [Cmpd 625] | D | D | A (> 80) | B (≤ 80)
